According to patent US20180000778A1, “SMALL MOLECULE ANTAGONISTS OF DUSP5 AND METHODS OF USE” (THE MEDICAL COLLEGE OF WISCONSIN, INC., priority 2015, published 2018):

What was measured:
DUSP5 PD(C263S) = target: T1, DUSP5 PD(C263S) (Homo sapiens, UniProt Q16690, C263S); test: NMR binding assay, 2D 1H-15N HSQC titration; conditions: pH 6.8; 250 μM RR505 or 500 μM CSD3-2320
T1 construct: hexa-histidine (N); made in house; host or cells: E. coli BL21(DE3), M9 minimal media with 15NH4Cl
Method: NMR samples of DUSP5 PD(C263 S) were prepared for 2D 1H-15N HSQC (heteronuclear single quantum coherence) spectral titration studies. The 15N-labeled DUSP5 PD(C263) protein was concentrated using an Amicon Ultra-4 centrifugal device (Millipore) to 600 μM.
NMR samples were prepared with the following conditions for RR505: ±250 μM RR505, 250 μM DUSP5 PD (C263S), 10% D20, 50 mM potassium phosphate, 100 mM KCl, and 2 mM DTT at pH 6.8.
NMR samples were prepared with the following conditions for CSD3-2320: ±500 μM CSD3-2320, 500 μM DUSP5 PD (C263S), 10% D20, 50 mM potassium phosphate, 100 mM KCl, and 2 mM DTT at pH 6.8. NMR experiments were performed on a 500 MHz Varian NMR System using a triple resonance probe with z-axis gradients at 25° C.

full-length DUSP5 = target: T2, full-length DUSP5 (Homo sapiens, UniProt Q16690); test: ERK dephosphorylation assay, full-length DUSP5 with pERK2 substrate, western blot; format: biochemical
T2 construct: an assay was development using ERK2 and full-length DUSP5
T2 sequence (Q16690 1-384): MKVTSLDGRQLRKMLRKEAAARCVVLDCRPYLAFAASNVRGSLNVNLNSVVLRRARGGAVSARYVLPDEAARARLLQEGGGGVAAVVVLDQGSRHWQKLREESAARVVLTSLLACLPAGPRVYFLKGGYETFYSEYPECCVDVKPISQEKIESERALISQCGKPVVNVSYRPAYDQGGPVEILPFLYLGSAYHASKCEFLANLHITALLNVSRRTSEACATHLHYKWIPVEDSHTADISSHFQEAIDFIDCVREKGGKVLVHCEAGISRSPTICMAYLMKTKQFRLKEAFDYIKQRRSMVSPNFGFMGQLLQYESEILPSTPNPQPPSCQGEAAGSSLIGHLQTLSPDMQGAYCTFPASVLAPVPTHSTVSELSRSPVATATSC
Method: ERK Dephosphorylation Assay.
For this assay, 10 ng of GST-tagged recombinant phosphorylated ERK2 (R&D Systems, 1230-KS) was incubated with and without the indicated DUSP5 proteins (0.5 nM final concentration) for 15 min at room temperature, with or without the indicated drugs. The reactions were halted with 2× Laemmli sample buffer and subjected to SDS-PAGE. The proteins were transferred to polyvinylidene difluoride (PVDF) and immunoblotted using antibodies to pERK (Cell Signaling Tech., #9106) and Total ERK (Cell Signaling Tech., #9102). Bound antibodies were visualized using horseradish peroxidase-linked anti-mouse IgG (Cell Signaling Tech, #7076S) and anti-rabbit IgG (Cell Signaling Tech, #7074S), respectively, and ECL reagents (Pierce, 34708) according to the manufacturer's protocol. IC50s were calculated using GraphPad Prism 6 software.
And, the native substrate for DUSP5 is the pERK2 protein, which is much larger and capable of a more complicated range of inter-molecular interactions that the pNPP substrate (which is intended only to mimic the phospho-tyrosine of pERK). […] To this end, an assay was development using ERK2 and full-length DUSP5, monitoring pERK levels in a western blot, as a function of pERK2 substrate concentration. […] This surprising increase in potency for CSD3-2320 (but not NTS) with full length DUSP5 underscores the importance of performing secondary assays with biologically relevant forms of enzyme and substrate.

T1 sequence (Q16690 178-319 C263S limits assumed): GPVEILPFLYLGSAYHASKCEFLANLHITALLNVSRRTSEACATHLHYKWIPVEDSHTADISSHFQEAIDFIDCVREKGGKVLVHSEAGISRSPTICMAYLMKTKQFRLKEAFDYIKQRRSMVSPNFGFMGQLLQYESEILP

| Compound | binding by HSQC crosspeak changes (DUSP5 PD(C263S)) | activity in DUSP5:pERK assay, in words (full-length DUSP5; in vitro, western blot) | fold increase in IC50 activity compared to NTS (full-length DUSP5; DUSP5/pERK assay) | IC50 (full-length DUSP5; full-length DUSP5, pERK substrate) | IC50 (full-length DUSP5; full-length DUSP5, pERK/ERK2 substrate) |
| --- | --- | --- | --- | --- | --- |
| O=S(=O)([O-])c1ccc2[nH]c3c(S(=O)(=O)[O-])cc(S(=O)(=O)[O-])cc3c2c1.[Na+].[Na+].[Na+] [RR505, Carbazole-1,3,6-trisulfonic acid, Trisodium Salt] | direct binding | sub-micromolar range |  |  |  |
| O=S(=O)(O)c1cc(O)c2c(S(=O)(=O)O)cccc2c1 [RR527] | direct binding |  | 1,000 fold | 0.538 ± 0.271 µM | 33 µM |
